# Patent publication EP0178388A1, “Quinolinecarboxylic acid derivatives” (KYORIN PHARMACEUTICAL CO., LTD., priority 1984, dated 1986)
# Where a name gives a salt, the structure may show the parent alone. Read-outs that look alike come from different tables or passages of the source.
# Key:
# [1] = tested on: B. fragilis 25285; assay: In vitro antibacterial activity, MIC (standard strain); assay type: cell-based; details: Bacteroides fragilis, 25285
# [2] = tested on: Citrobacter freundii IID 976; assay: as above; assay type: cell-based; details: IID976
# [3] = tested on: Yersinia enterocolitica IID 981; assay: as above; assay type: cell-based; details: IID981
# [4] = tested on: Bacteroides fragilis GM 7000; assay: as above; assay type: cell-based; details: GM7000
# [5] = tested on: Klebsiella pneumoniae I-220S; assay: as above; assay type: cell-based
# [6] = tested on: Salmonella enteritidis IID 604; assay: as above; assay type: cell-based; details: Salmonella enterica
# [7] = tested on: P. aeruginosa IID 1210; assay: In vivo antibacterial activity against systemic infection in mice; parameters: species or system mice (ICR-S); details: Pseudomonas aeruginosa, IID1210, po, 1 h;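 further: ED50 in mg/kg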
# Procedure: (§1) Experiment 2 In vivo antibacterial activity against systemic infection in mice (ICR-S)
# (§2) The infections were produced by intraperitoneal infection of a suspension of the bacterial culture corresponding to the germ studied. The product was administered orally at 1 hour after the infection. The 50% effective dose (ED50) which protects 50% of the animals from death caused by the infection was determined from the relation between dosage and survival rate.
# [8] = tested on: S. pneumoniae S-4288; assay: as above; parameters: species or system mice (ICR-S); details: Streptococcus pneumoniae
# Procedure: as §1, §2
# [9] = tested on: S. aureus Smith; assay: as above; parameters: species or system mice (ICR-S); details: Staphylococcus aureus, po, 1 h;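 further: ED50 in mg/kg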
# Procedure: as §1, §2
# [10] = tested on: B. thetaiotaomicron (0661); assay: In vitro antibacterial activity, MIC (standard strain); assay type: cell-based; details: Bacteroides thetaiotaomicron
# [11] = tested on: Pseudomonas aeruginosa V-1; assay: as above; assay type: cell-based; details: V1
# [12] = tested on: B. fragilis 0558; assay: as above; assay type: cell-based; details: Bacteroides fragilis, 0558
# [13] = tested on: Proteus vulgaris IFO 3167; assay: as above; assay type: cell-based; details: IFO3167
# [14] = tested on: C. ramosum; assay: as above; assay type: cell-based; details: Thomasclavelia ramosa
# [15] = tested on: Shigella sonnei IID 969; assay: as above; assay type: cell-based; details: IID969, Shigella sonnei IID 969, 10^6 cells/ml
# Procedure: (§3) The in vitro antibacterial activity has been investigated, the minimun inhibitory concentration (MIC) was determined in accordance with the method recommended by Japan Society of Chemotherapy.
# [16] = tested on: K. pneumoniae KY(GN)6445; assay: as above; assay type: cell-based
# [17] = tested on: P. morganii IID 602; assay: as above; assay type: cell-based; details: Morganella morganii, IID602
# [18] = tested on: Acinetobacter anitratus IID 876; assay: as above; assay type: cell-based; details: Acinetobacter calcoaceticus, IID876
# [19] = tested on: Bacillus subtilis PCI 219; assay: as above; assay type: cell-based; details: PCI219
# [20] = tested on: E. coli ML4707; assay: In vivo antibacterial activity against systemic infection in mice;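 further: ED50 in mg/kg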; details: Escherichia coli, ML4707, po, 1 h, E. coli ML4707, mice (ICR-S), intraperitoneal infection, oral at 1 hour after infection
# Procedure: as §1, §2
# [21] = tested on: Escherichia coli NIHJ JC-2; assay: In vitro antibacterial activity, MIC (standard strain); assay type: cell-based; details: NIHJJC2, Escherichia coli NIHJ JC-2, 10^6 cells/ml
# [22] = tested on: Peptostreptococcus anaerobius KYA 27337; assay: as above; assay type: cell-based; details: KYA27337, Peptostreptococcus anaerobius KYA 27337, 10^6 cells/ml
# [23] = tested on: Veillonella parvula KYA 10790; assay: as above; assay type: cell-based; details: KYA10790, Veillonella parvula KYA 10790, 10^6 cells/ml
# [24] = tested on: P. aeruginosa IFO 12689; assay: as above; assay type: cell-based
# [25] = tested on: S. aureus IID 670 (Terajima); assay: as above; assay type: cell-based; details: Staphylococcus aureus, IID670, 10^6 cells/ml
# [26] = tested on: Clostridium difficile I-E; assay: as above; assay type: cell-based; details: Clostridioides difficile, 10^6 cells/ml
# [27] = tested on: Staphylococcus aureus 209 P; assay: as above; assay type: cell-based; details: 10^6 cells/ml
# [28] = tested on: F. varium KYA (ATCC) 8501; assay: as above; assay type: cell-based; details: Fusobacterium varium, F. varium KYA (ATCC) 8501, 10^6 cells/ml
# [29] = tested on: B. distasonis 8503; assay: as above; assay type: cell-based; details: Parabacteroides distasonis, B. distasonis 8503, 10^6 cells/ml
# [30] = tested on: Alcaligenes faecalis 0114002; assay: as above; assay type: cell-based; details: Alcaligenes faecalis 0114002, 10^6 cells/ml
# [31] = tested on: S. epidermidis IID 866; assay: as above; assay type: cell-based; details: Staphylococcus epidermidis, IID866, S. epidermidis IID 866, 10^6 cells/ml
# [32] = tested on: Enterobacter cloacae IID 977; assay: as above; assay type: cell-based; details: IID977, Enterobacter cloacae IID 977, 10^6 cells/ml
# [33] = tested on: Pst. micros UPI 5464-1; assay: as above; assay type: cell-based; details: Parvimonas micra, UPI54641, Pst. micros UPI 5464-1, 10^6 cells/ml
# [34] = tested on: P. mirabilis IID 994; assay: as above; assay type: cell-based; details: Proteus mirabilis, IID994, P. mirabilis IID 994, 10^6 cells/ml
# [35] = tested on: E. coli ATCC 10536; assay: as above; assay type: cell-based; details: Escherichia coli, ATCC10536; E. coli ATCC 10536, 10^6 cells/ml, standard strain; read-out: MIC
# [36] = tested on: C. perfringens KYA (ATCC) 13123; assay: microbe, parasite or virus in culture; assay type: cell-based; details: Clostridium perfringens
# [37] = tested on: Serratia marcescens IID 618; assay: In vitro antibacterial activity, MIC (standard strain); assay type: cell-based
# [38] = tested on: E. coli ML4707; assay: MIC against the infecting strain (Table 2); assay type: cell-based; details: Escherichia coli; E. coli ML4707 (Table 2, parts 1 and 2)
# Procedure: as §3
# [39] = tested on: S. pyogenes IID 692; assay: In vitro antibacterial activity, MIC (standard strain); assay type: cell-based; details: Streptococcus pyogenes, IID692, S. pyogenes IID 692, 10^6 cells/ml
# [40] = tested on: S. faecalis IID 682; assay: as above; assay type: cell-based; details: Enterococcus faecalis, IID682, S. faecalis IID 682, 10^6 cells/ml
# [41] = tested on: S. pneumoniae IID 552; assay: as above; assay type: cell-based; details: Streptococcus pneumoniae, IID552, S. pneumoniae IID 552, 10^6 cells/ml
# [42] = tested on: Streptococcus pyogenes S-8; assay: as above; assay type: cell-based; details: S8, Streptococcus pyogenes S-8, 10^6 cells/ml
# [43] = tested on: S. pneumoniae S-4288; assay: MIC against the infecting strain (Table 2); assay type: cell-based; details: Streptococcus pneumoniae, S4288; S. pneumoniae S-4288 (Table 2, part 4)
# [44] = Citrobacter freundii IID 976, 10^6 cells/ml, standard strain, read-out: MIC
# [45] = Yersinia enterocolitica IID 981, 10^6 cells/ml, standard strain, read-out: MIC
# [46] = Salmonella enteritidis IID 604, 10^6 cells/ml, standard strain, read-out: MIC
# [47] = Pseudomonas aeruginosa V-1, 10^6 cells/ml, standard strain, read-out: MIC
# [48] = Proteus vulgaris IFO 3167, 10^6 cells/ml, standard strain, read-out: MIC
# [49] = Klebsiella pneumoniae, K. pneumoniae KY(GN)6445, 10^6 cells/ml, standard strain, read-out: MIC
# [50] = P. morganii IID 602, 10^6 cells/ml, standard strain, read-out: MIC
# [51] = Acinetobacter anitratus IID 876, 10^6 cells/ml, standard strain, read-out: MIC
# [52] = Bacillus subtilis PCI 219, 10^6 cells/ml, standard strain, read-out: MIC
# [53] = IID618, Serratia marcescens IID 618, 10^6 cells/ml, read-out: MIC
smiles,measurement,setting,value
"O=C(O)c1cn(C2CC2)c2cc(N3CCNCC3)c(F)cc2c1=O [CFLX, 1-Cyclopropyl-6-fluoro-1,4-dihydro-4-oxo-7-(1-piperazinyl)-quinoline-3-carboxylic acid, reference compound]",MIC,[1],3.13 µg/mL
same,MIC,[2]; Citrobacter freundii,≤ 0.006 µg/mL
same,MIC,[3]; Yersinia enterocolitica,0.05 µg/mL
same,MIC,[4]; Bacteroides fragilis,3.13 µg/mL
same,MIC,[5]; Klebsiella pneumoniae,0.05 µg/mL
same,MIC,[6],0.025 µg/mL
same,ED50,[7],8 mg/kg
same,ED50,"[8]; S4288, po, 1 h",> 100 mg/kg
same,ED50,[9],12.8 mg/kg
same,MIC,[10],3.13 µg/mL
same,MIC,[11]; Pseudomonas aeruginosa,0.2 µg/mL
same,MIC,[12],3.13 µg/mL
same,MIC,[13]; Proteus vulgaris,≤ 0.006 µg/mL
same,MIC,[14],3.13 µg/mL
same,MIC,[15],≤ 0.006 µg/mL
same,MIC,[16]; Klebsiella pneumoniae,0.025 µg/mL
same,MIC,[17],0.05 µg/mL
same,MIC,[18],0.025 µg/mL
same,MIC,[19]; Bacillus subtilis,0.05 µg/mL
same,ED50,[20]; challenge dose 6.0 x 10^6 cfu/mouse (part 1),0.67 mg/kg
same,ED50,[20]; challenge dose 8.3 x 10^6 cfu/mouse (part 2),0.75 mg/kg
same,MIC,[21],≤ 0.006 µg/mL
"CC1CN(c2c(F)cc3c(=O)c(C(=O)O)cn(C4CC4)c3c2F)CC(C)N1 (stereo not drawn) [Example 4, 1-Cyclopropyl-6,8-difluoro-1,4-dihydro-7-(3,5-dimethyl-l-piperazinyl)-4-oxoquinoline-3-carboxylic acid]",MIC,[22],3.13 µg/mL
same,MIC,[23],0.39 µg/mL
same,MIC,[1],1.56 µg/mL
same,MIC,[2]; [44],0.025 µg/mL
same,MIC,[3]; [45],0.1 µg/mL
same,MIC,"[4]; Bacteroides fragilis GM 7000, 10^6 cells/ml, standard strain, read-out: MIC",3.13 µg/mL
same,MIC,"[24]; Pseudomonas aeruginosa, IFO12689",1.56 µg/mL
same,MIC,[25],0.2 µg/mL
same,MIC,[26],12.5 µg/mL
same,MIC,[27]; read-out: MIC,0.2 µg/mL
same,MIC,[28],12.5 µg/mL
same,MIC,[29],3.13 µg/mL
same,MIC,[30],0.2 µg/mL
same,MIC,[6]; [46],0.05 µg/mL
same,MIC,"[10]; B. thetaiotaomicron (0661), 10^6 cells/ml, standard strain, read-out: MIC",6.25 µg/mL
same,MIC,[11]; [47],0.39 µg/mL
same,MIC,[12],1.56 µg/mL
same,MIC,[31],0.39 µg/mL
same,MIC,[13]; [48],0.025 µg/mL
same,MIC,[32],0.05 µg/mL
same,MIC,[15],0.0125 µg/mL
same,MIC,[33],0.39 µg/mL
same,MIC,[16]; [49],0.025 µg/mL
same,MIC,[34],0.1 µg/mL
same,MIC,[17]; [50],0.1 µg/mL
same,MIC,[18]; [51],0.006 µg/mL
same,MIC,[35],≤ 0.006 µg/mL
same,MIC,[19]; [52],0.05 µg/mL
same,MIC,[36],1.56 µg/mL
same,MIC,[37]; [53],0.1 µg/mL
same,ED50,"[20]; challenge dose 6.0 x 10^6 cfu/mouse (part 1), read-out: ED50",0.13 mg/kg
same,MIC,[21],≤ 0.025 µg/mL
same,MIC,[38],0.0125 µg/mL
"CC1CN(c2c(F)cc3c(=O)c(C(=O)O)cn(C4CC4)c3c2Cl)CC(C)N1 (centres unmarked) [Example 6, 8-Chloro-1-cyclopropyl-6-fluoro-1,4-dihydro-7-(3,5-dimethyl-1-piperazinyl)-4-oxoquinoline-3-carboxylic acid and its hydrochloride]",MIC,[2]; [44],0.1 µg/mL
same,MIC,[3]; [45],0.2 µg/mL
same,MIC,"[24]; Pseudomonas aeruginosa, IFO12689, P. aeruginosa IFO 12689, 10^6 cells/ml, standard strain, read-out: MIC",3.13 µg/mL
same,MIC,[25],0.2 µg/mL
same,MIC,[27]; read-out: MIC,0.2 µg/mL
same,MIC,"[5]; I220S, Klebsiella pneumoniae I-220S, 10^6 cells/ml, standard strain, read-out: MIC",0.2 µg/mL
same,MIC,[30],0.78 µg/mL
same,MIC,[6]; [46],0.1 µg/mL
same,MIC,[11]; [47],1.56 µg/mL
same,MIC,[31],0.2 µg/mL
same,MIC,[13]; [48],0.05 µg/mL
same,MIC,[32],0.2 µg/mL
same,MIC,[15],0.05 µg/mL
same,MIC,[16]; [49],0.05 µg/mL
same,MIC,[39],0.78 µg/mL
same,MIC,[34],0.1 µg/mL
same,MIC,[40],0.78 µg/mL
same,MIC,[17]; [50],0.2 µg/mL
same,MIC,[18]; [51],0.1 µg/mL
same,MIC,[41],0.78 µg/mL
same,MIC,[35],0.025 µg/mL
same,MIC,[19]; [52],0.05 µg/mL
same,MIC,[37]; [53],0.2 µg/mL
same,MIC,[42],0.39 µg/mL
same,MIC,[21],0.05 µg/mL
"CC1CN(c2c(F)cc3c(=O)c(C(=O)O)cn(C4CC4)c3c2Cl)CCN1 (stereo not drawn) [Example 7, 8-Chloro-l-cyclopropyl-6-fluoro-l,4-dihydro-7-(3-methyl-l-piperazinyl)-4-oxoquinoline-3-carboxylic acid]",MIC,"[24]; P. aeruginosa IFO 12689, 10^6 cells/ml, standard strain, listed as Exp.7",0.78 µg/mL
same,MIC,[27],0.10 µg/mL
same,ED50,"[8]; S4288, S. pneumoniae S-4288, mice (ICR-S), intraperitoneal infection, oral at 1 hour after infection, challenge dose 2.5 x 10^3 cfu/mouse, read-out: ED50",15.6 mg/kg
same,MIC,[43],0.78 µg/mL
same,MIC,"[16]; K. pneumoniae KY(GN)6445, 10^6 cells/ml, standard strain",0.025 µg/mL
same,MIC,"[37]; Serratia marcescens IID 618, 10^6 cells/ml",0.05 µg/mL
